The first assay concerns the target tyrosinase.
Test: not given
The note with it: read-out: tyrosinase inhibitory constant (Ki); ref Choi et al. [25]; cited from earlier work.
With `O=c1[nH]cnc2nc[nH]c12` [Hypoxanthine], the Ki was over 1000 µM.

The next assay has as its target Tyrosinase (EC 1.14.18.1) from mushroom. Briefly: Tyrosinase inhibitory assay (L-DOPA substrate, absorbance at 475 nm). Conditions: read-out: IC50 (tyrosinase inhibitory activity); mushroom tyrosinase 15 U/mL, L-DOPA 1.5 mM, phosphate buffer pH 6.8, preincubated 30 min, n = 3.
Experimental: Optical values were measured on a Shimadzu UV-1800 spectrophotometer (Shimadzu Pte., Ltd., Singapore). […] Tyrosinase (EC 1.14.18.1) from mushroom (3933 U·mL^−1) and L-dihydroxyphenylalanine (L-DOPA) were obtained from Sigma-Aldrich (Sigma-Aldrich Pte., Ltd., Singapore). Other chemicals were of the highest grade available.
All pure compounds were dissolved in DMSO and tested at concentrations ranging from 0.01 to 100 μM. Assay mixtures in 0.1 M phosphate buffer pH 6.8 were prepared immediately before use, consisting of 100 μL of tyrosinase solution (15 U/mL) and 1900 μL of test solution. These mixtures were preincubated at room temperature for 30 min, followed by addition of 1000 μL of L-DOPA 1.5 mM in pH 6.8 phosphate buffer and incubated at room temperature for 7 min. The absorbances (A) at 475 nm were acquired on Shimadzu UV-1800 spectrophotometer. The inhibitory percentage (I%) was calculated according to the formula: I% = ((Acontrol − Asample)/Acontrol) × 100%. Data were represented as means ± standard error (n = 3). The IC50 values were determined by using GraphPad Prism software with multivariate nonlinear regression and R^2 > 0.9.
Turning to `O=C(/C=C/C=C/c1ccc(O)cc1O)c1ccc(O)cc1O` [Compound 1, 2E,4E-1,5-bis(2,4-dihydroxyphenyl)penta-2,4-dien-1-one], the half-maximal inhibitory concentration (IC50) came out at 0.033 µM. Same read-out and setting: under `O=C(/C=C/C=C/C=C/c1ccc(O)cc1O)c1ccc(O)cc1O` [Compound 2, 2E,4E,6E-1,7-bis(2,4-dihydroxyphenyl)hepta-2,4,6-trien-1-one] stands 0.11 µM. In the case of `COC1=CC(=O)C=C(OC)C1=O` [Compound 3, 2,6-dimethoxybenzoquinone], the IC50 is over 100 µM. On to `O=C(O)/C=C/c1ccc(O)cc1` [Compound 4, p-coumaric acid], for which the IC50 worked out at 2.35 µM. For `CC(=O)/C=C/c1ccc(O)c(O)c1` [Compound 6, trans-4-(3,4-dihydroxyphenyl)but-3-en-2-one], the 50% inhibitory concentration (IC50) was found to be 27 µM.

For the compound `COc1cc(/C=C/C(=O)O)ccc1O` [Compound 7, ferulic acid], the IC50 is over 100 µM. The same measure, in the same setting: under `O=C(/C=C/c1ccc(O)cc1O)c1ccc(O)cc1O` [Compound 8, 2,4,2′,4′-Tetrahydroxychalcone] stands 0.016 µM.

In general, Ki refers to the dissociation constant of the complex between target and ligand, obtained from inhibition or displacement. What is called IC50 is the point on the concentration scale where inhibition reaches its midpoint.

The values are drawn from publication PMC7801053, “Diarylalkanoids as Potent Tyrosinase Inhibitors from the Stems of Semecarpus caudata” (Evidence-based Complementary and Alternative Medicine : eCAM, 2021).
